{"source": "patent US4115453A", "about": "(Miles Laboratories, Inc., priority 1977, dated 1978)", "key": {"tracheal smooth muscle": {"test_system": "tracheal smooth muscle", "settings": "in vitro; cited from earlier work"}, "[1]": {"test_system": "female reproductive system", "settings": "cited from earlier work"}, "gastric secretion": {"test_system": "gastric secretion", "assay": "Test B: Inhibition of Rodent Gastric Secretion (pylorus-ligated rat)", "assay_type": "in vivo", "settings": "subcutaneous, 2 x 1.5 mg/kg (total 3.0 mg/kg), 4 hours after pyloric ligation", "method": "A procedure based on that described by Lipmann (J. Pharm. Pharmacol., 21:335 [ 1968]) was used to assess the influence of test compounds on gastric secretion. Rats of one sex weighing 150 to 200 g were randomly divided into groups of six animals each and fasted for 48 hours previously to the experiments, water being available adlibitum. The animals were anesthetized with ether, the abdomen was opened through a midline incision and the pylorus was ligated. Test compounds were diluted from stock solution so as to administer a dose of 1.5 mg/kg in a volume equivalent to 1 ml/kg. Subcutaneous injections were applied immediately after surgery and again 2 hours later, so that a total dose of 3.0 mg/kg was administered. Dilutions were made with phosphate buffer (pH 7.38) as recommended by Lee et al. (Prostaglandins 3:29 [ 1973]), in order to insure adequate stability of drugs at the subcutaneous depot. Each compound was tested in one group of rats; an additional control group received only the vehicle.\nFour hours after pyloric ligation the animals were killed with ether, the cardias ligated and the stomachs removed. The volume of gastric secretion was measured and the contents centrifuged at 5000 rpm for 10 minutes. Total acid in the supernatant was titrated against a 0.1 N sodium hydroxide solution and the amount expressed in mEq.\nVolume and total acid values of the treated group were compared with those of the controls by the \"T\" test. Antisecretory activity was scored according to the following scale: […]"}, "blood pressure": {"test_system": "blood pressure", "assay": "Test D: Decrease in Normal Feline Blood Pressure and Heart Rate (anesthetized cat)", "assay_type": "in vivo", "settings": "intravenous, 0.01 to 10.0 mcg/kg, judged only on hypotension", "method": "The acute effects of test compounds on blood pressure and heart rate were determined in cats of either sex anesthetized with a mixture of pentobarbital sodium (35 mg/kg, i.v.) and barbital sodium (100 mg/kg, i.v.). Cannulas were placed in the trachea to allow adequate spontaneous ventilation, in a femoral artery for blood pressure recording with a strain gage transducer, and in a saphenous vein for drug administration. Heart rate was recorded by means of a cardiotachometer driven by the R wave of the electrocardiogram. After a period of 10 minutes of stable recordings of blood pressure and heart rate, the test compound was administered intravenously at doses increasing from 0.01 to 10.0 mcg/kg, spaced one log and injected at 10 minutes intervals. All doses were injected in a volume of 0.1 ml/kg. Modifications of blood pressure and heart rate induced by the test compound were expressed both in absolute units (mmHg and beats/minutes) and as percent of values recorded immediately before administration of each dose. Biphasic responses were tabulated in the order in which they occur. The direction of the observed changes was also noted (+ for increases and - for decreases).\nActivity of compounds in this test was judged only on the basis of the degree of hypotension observed. Thus, the ED50 mmHg (dose decreasing blood pressure by 50 mmHg) was calculated graphically and the compound scored according to the following scale: […]"}, "[2]": {"test_system": "human platelet aggregation", "assay": "Test A: Inhibition of Human Platelet Aggregation", "assay_type": "cell-based", "settings": "human platelet rich plasma, in vitro, collagen-induced, 37° C, 15 minutes", "method": "The ability of test compounds to inhibit platelet aggreagation was determined by a modification of the turbidometric technique of Born (Nature, 194: 927 [1962]). Blood was collected from human volunteer who had not ingested aspirin or aspirin-containing products within the preceding two weeks in heparinized containers and was allowed to settle for one (1) hour. The platelet rich plasma (prp) supernates were collected and cooled. Siliconized glassware was used throughout.\nIn a representative assay 1.9 ml of PRP and 0.2 ml of test compound at the appropriate concentrations (0.001 to 100 mcgm), or 0.2 ml of distilled water (control procedure) were placed in sample cuvettes. The cuvettes were placed in a 37° C incubation block for 15 minutes, and then in a spectrophotometer linked to a strip chart recorder. After 30-60 seconds, 0.2 ml of a solution, prepared by diluting a calf-skin collagen solution 1:9 with Tyrodes' Solution, was added to each cuvette. Platelet aggregation was evidenced by a decrease in optical density.\nAn ED50 value was then determined graphically."}, "femoral blood flow": {"test_system": "femoral blood flow", "assay": "Test C: Increase in Canidae Femoral Blood Flow", "assay_type": "in vivo", "settings": "anesthetized dog, intraarterial, 0.001 to 10 mcg", "method": "The peripheral vasodilator or constrictor effects of test compounds were determined in mongrel dogs of either sex, weighing between 10 and 20 kg anesthestized intravenously with 35 mg/kg of sodium pentobarbital. An external iliac artery was dissected immediately above the femoral arch for a length of approximately 5 cm and a previously calibrated, non-connulating electromagnetic flowmeter sensor with a lumen between 2.5 and 3.5 mm was placed snugly around the vessel. Cannulas were placed in a branch of the artery arising distally to the location of the flowmeter sensor for intraarterial drug administrations, in the contralateral femoral artery for systemic blood pressure recordings and in the trachea for artificial respiration with room air. Femoral blood flow and systemic blood pressure were continuously recorded with an electromagnetic flowmeter and pressure tranducer, respectively.\nAfter an adequate control period, test compounds were injected intraarterially at one log-spaced doses ranging from 0.001 to 10 mcg., in a volume of 0.5 ml and at 5 to 10 minute intervals. Maximum changes in bloodflow, as well as any variations in blood pressure, were tabulated for each dose in absolute values (ml/min. and mmHg). The calculations were made taking as control values those existing immediately before administration of each dose. The direction of the observed change (plus for increase and minus for decrease) was also noted. The dose changing bloodflow by 100 ml/min (ED100 ml/min) was calculated graphically and was used for scoring activity as follows: […]"}, "blood platelets": {"test_system": "blood platelets", "settings": "in vitro; cited from earlier work"}, "[3]": {"test_system": "smooth muscle of the vas deferens", "settings": "cited from earlier work"}, "[4]": {"test_system": "human platelet aggregation", "settings": "result in words; cited from earlier work"}}, "data": [{"compound": "CCCCC[C@H](O)/C=C/[C@H]1[C@H](O)CC(=O)[C@@H]1C/C=C\\CCCC(=O)O", "note": "[PGE2]", "values": [{"measurement": "effect on tracheal smooth muscle", "setting": "tracheal smooth muscle", "result": "relax"}]}, {"compound": "CCCCC[C@H](O)/C=C/[C@@H]1[C@@H](C/C=C\\CCCC(=O)O)[C@@H](O)C[C@H]1O", "note": "[PGF2α]", "values": [{"measurement": "effect on tracheal smooth muscle", "setting": "tracheal smooth muscle", "result": "contracts the smooth muscle"}, {"measurement": "spontaneous abortions", "setting": "[1]; early pregnancy", "result": "induces spontaneous abortions in early pregnancy"}, {"measurement": "effect on fertility / gestation", "setting": "[1]; female reproductive system", "result": "contragestational effects"}]}, {"compound": "dl-7-{5-oxo-2R[3R-hydroxy-2-(bicyclo[3.2.0]hept-3-yl)-1E-propenyl]cyclopent- [TR-4101]", "values": [{"measurement": "Activity Value Test B (% decrease in acidity)", "setting": "gastric secretion", "result": "1 (26-50, not significant)"}, {"measurement": "Activity Value Test D (ED50 mmHg, dose decreasing blood pressure by 50 mmHg)", "setting": "blood pressure", "result": "1 (1.01 - 10.0)"}, {"measurement": "Activity Value Test A (ED50, inhibition of platelet aggregation)", "setting": "[2]", "result": "1 (>1.0)"}, {"measurement": "Activity Value Test C (ED100 ml/min, dose changing bloodflow by 100 ml/min)", "setting": "femoral blood flow", "result": "3 (0.01 - 0.1)"}]}, {"compound": "COC(=O)CCCCCC[C@H]1C(=O)C[C@@H](O)[C@@H]1/C=C/[C@@H](O)C1CC2CCC2C1", "note": "(stereo partly drawn) [TR-4099, methyl 7-{3R-hydroxy-5-oxo-2R-[2S-hydroxy-3-(bicyclo[3.2.0]hept-3-yl)-1E-propenyl]cyclopent-1R-yl)heptanoae]", "values": [{"measurement": "Activity Value Test B (% decrease in acidity)", "setting": "gastric secretion", "result": "1 (26-50, not significant)"}, {"measurement": "Activity Value Test D (ED50 mmHg, dose decreasing blood pressure by 50 mmHg)", "setting": "blood pressure", "result": "0 (>10.0)"}, {"measurement": "Activity Value Test A (ED50, inhibition of platelet aggregation)", "setting": "[2]", "result": "2 (>0.1≤1.0)"}, {"measurement": "Activity Value Test C (ED100 ml/min, dose changing bloodflow by 100 ml/min)", "setting": "femoral blood flow", "result": "0 (>10.0)"}]}, {"compound": "CCCCC[C@H](O)/C=C/[C@H]1[C@H](O)CC(=O)[C@@H]1CCCCCCC(=O)O", "note": "[PGE1, prostaglandin E1]", "values": [{"measurement": "thrombogenesis", "setting": "blood platelets", "result": "inhibits thrombogenesis in vitro"}, {"measurement": "effect on tracheal smooth muscle", "setting": "tracheal smooth muscle", "result": "relax"}, {"measurement": "contraction of the smooth muscle of the vas deferens", "setting": "[3]", "result": "contracts the smooth muscle of the vas deferens"}, {"measurement": "inhibition of platelet aggregation by natural prostaglandins", "setting": "[4]", "result": "displays a similar activity"}]}, {"compound": "COC(=O)CCCCCC[C@H]1C(=O)C[C@@H](O)[C@@H]1/C=C/[C@H](O)CCCCC1CCCC2CCCCC21", "note": "(some centres unmarked) [TR-4166]", "values": [{"measurement": "Activity Value Test B (% decrease in acidity)", "setting": "gastric secretion", "result": "0 (<26)"}, {"measurement": "Activity Value Test D (ED50 mmHg, dose decreasing blood pressure by 50 mmHg)", "setting": "blood pressure", "result": "0 (>10.0)"}, {"measurement": "Activity Value Test A (ED50, inhibition of platelet aggregation)", "setting": "[2]", "result": "1 (>1.0)"}, {"measurement": "Activity Value Test C (ED100 ml/min, dose changing bloodflow by 100 ml/min)", "setting": "femoral blood flow", "result": "0 (>10.0)"}]}]}
